The structures appear in SMILES notation.

This experiment concerns the target T1, menin-MLL interaction (Homo sapiens, UniProt O00255).
T1 sequence (O00255 1-610): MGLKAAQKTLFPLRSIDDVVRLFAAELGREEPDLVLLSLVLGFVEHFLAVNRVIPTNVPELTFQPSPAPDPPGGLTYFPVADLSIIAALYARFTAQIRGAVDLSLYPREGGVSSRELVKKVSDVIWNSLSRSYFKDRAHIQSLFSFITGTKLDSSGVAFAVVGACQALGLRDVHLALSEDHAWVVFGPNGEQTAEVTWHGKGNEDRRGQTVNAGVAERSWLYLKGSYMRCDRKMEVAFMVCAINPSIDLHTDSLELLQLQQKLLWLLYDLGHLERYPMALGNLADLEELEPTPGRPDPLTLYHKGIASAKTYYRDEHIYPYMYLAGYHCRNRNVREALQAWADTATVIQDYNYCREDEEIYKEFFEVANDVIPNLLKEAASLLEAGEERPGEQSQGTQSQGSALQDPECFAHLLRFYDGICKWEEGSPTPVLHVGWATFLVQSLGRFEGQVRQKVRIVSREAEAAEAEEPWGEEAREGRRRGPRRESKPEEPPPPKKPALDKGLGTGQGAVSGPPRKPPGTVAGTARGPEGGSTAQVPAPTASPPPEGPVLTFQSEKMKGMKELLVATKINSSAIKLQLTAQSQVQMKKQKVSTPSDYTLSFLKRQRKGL
Briefly: biochemical.
Source text: Compounds that inhibit the interaction decrease the fluorescence anisotropy which is being used as a read-out for compound screening and for IC50 determination.
In general, IC50 refers to the concentration that gives 50% inhibition. The low end stands for greater potency, the high end for weaker potency. `O=C(Cc1ccc(Cl)cc1)N1CCN(c2ncnc3sc(CC(F)(F)F)cc23)CC1` [Compound 71] had a 50% inhibitory concentration (IC50) of 100 to 500 nM.

On to `O=C(Cc1ccccc1F)N1CCN(c2ncnc3sc(CC(F)(F)F)cc23)CC1` [Compound 72], for which the IC50 is 100 to 500 nM. Next, `O=C(Cc1cccc(F)c1)N1CCN(c2ncnc3sc(CC(F)(F)F)cc23)CC1` [Compound 73]: 100 to 500 nM; `COc1ccc(CC(=O)N2CCN(c3ncnc4sc(CC(F)(F)F)cc34)CC2)cc1` [Compound 74]: 100 to 500 nM; `O=C(Cc1ccc(F)cc1)N1CCN(c2ncnc3sc(CC(F)(F)F)cc23)CC1` [Compound 75]: 100 to 500 nM. Next, `O=C(Cc1ccc(Cc2ccoc2)cc1)N1CCN(c2ncnc3sc(CC(F)(F)F)cc23)CC1` [Compound 76]: 100 to 500 nM. `N#CCc1ccc(CC(=O)N2CCN(c3ncnc4sc(CC(F)(F)F)cc34)CC2)cc1` [Compound 77] gave an IC50 of 100 to 500 nM. In turn, `NS(=O)(=O)Cc1ccc(CC(=O)N2CCN(c3ncnc4sc(CC(F)(F)F)cc34)CC2)c(F)c1` [Compound 78] showed an IC50 of 100 to 500 nM. `O=C(Cc1ccc(CS(=O)(=O)C(F)(F)F)cc1)N1CCN(c2ncnc3sc(CC(F)(F)F)cc23)CC1` [Compound 79] returned an IC50 of 100 to 500 nM.

`O=C1CCC(c2ccc(CC(=O)N3CCN(c4ncnc5sc(CC(F)(F)F)cc45)CC3)cc2)N1` (centres unmarked) [Compound 80] registered an IC50 of 100 to 500 nM. Molecule `O=C(Cc1ccc2cc[nH]c2c1)N1CCN(c2ncnc3sc(CC(F)(F)F)cc23)CC1` [Compound 81] registered an IC50 of 100 to 500 nM. `CNS(=O)(=O)c1ccc(CC(=O)N2CCN(c3ncnc4sc(CC(F)(F)F)cc34)CC2)cc1` [Compound 82] displayed an IC50 of 100 to 500 nM.

Molecule `Cn1cc(S(=O)(=O)Nc2ccc(CC(=O)N3CCN(c4ncnc5sc(CC(F)(F)F)cc45)CC3)cc2)cn1` [Compound 83] gave an IC50 of 100 to 500 nM.

The molecule `CS(=O)(=O)N(CC(N)=O)c1ccc(CC(=O)N2CCN(C3=NC=NC4SC(CC(F)(F)F)=CC34)CC2)c(Cl)c1` (centres unmarked) [Compound 84] came in with an IC50 of 100 to 500 nM. On to `CS(=O)(=O)N(CC(F)(F)F)c1ccc(CC(=O)N2CCN(c3ncnc4sc(CC(F)(F)F)cc34)CC2)cc1` [Compound 85], for which the IC50 is 100 to 500 nM. With `O=C(N1CCCC1)N1CCN(c2ncnc3sc(CC(F)(F)F)cc23)CC1` [Compound 86], the IC50 fell in the range of 500 to 2000 nM. Next, `O=C(C1CCCCC1)N1CCN(c2ncnc3sc(CC(F)(F)F)cc23)CC1` [Compound 87]: 500 to 2000 nM; `O=C(CCc1ccccc1)N1CCN(c2ncnc3sc(CC(F)(F)F)cc23)CC1` [Compound 88]: 500 to 2000 nM. Consider `O=C(CC1CCCCC1)N1CCN(c2ncnc3sc(CC(F)(F)F)cc23)CC1` [Compound 89], for which the IC50 is 500 to 2000 nM. In the case of `O=C(CCC1CCCCC1)N1CCN(c2ncnc3sc(CC(F)(F)F)cc23)CC1` [Compound 90] it was 500 to 2000 nM; in that of `O=C(N1CCCCC1)N1CCN(c2ncnc3sc(CC(F)(F)F)cc23)CC1` [Compound 91], 500 to 2000 nM; in that of `O=C(COCc1ccccc1)N1CCN(c2ncnc3sc(CC(F)(F)F)cc23)CC1` [Compound 92], 500 to 2000 nM.

Take `O=C(CCCc1ccccc1)N1CCN(c2ncnc3sc(CC(F)(F)F)cc23)CC1` [Compound 93]: the IC50 lay within 500 to 2000 nM. On to `COc1ccccc1CC(=O)N1CCN(c2ncnc3sc(CC(F)(F)F)cc23)CC1` [Compound 94], for which the IC50 lay in the range of 500 to 2000 nM. Next, `COc1cccc(CC(=O)N2CCN(c3ncnc4sc(CC(F)(F)F)cc34)CC2)c1` [Compound 95]: 500 to 2000 nM; `NS(=O)(=O)Cc1cccc(CC(=O)N2CCN(c3ncnc4sc(CC(F)(F)F)cc34)CC2)c1` [Compound 96]: 500 to 2000 nM.

As for `NS(=O)(=O)Cc1ccc(CC(=O)N2C[C@@H]3CC[C@H]2CN3c2ncnc3sc(CC(F)(F)F)cc23)cc1` [Compound 97], the IC50 fell in the range of 500 to 2000 nM.

For the molecule `CCCC(c1ccc(CC(=O)N2CCN(c3ncnc4sc(CC(F)(F)F)cc34)CC2)cc1)S(C)(=O)=O` (centres unmarked) [Compound 98], the IC50 fell in the range of 500 to 2000 nM. In the case of `O=C1NCCC1c1ccc(CC(=O)N2CCN(c3ncnc4sc(CC(F)(F)F)cc34)CC2)cc1` (centres unmarked) [Compound 99] it was 500 to 2000 nM; in that of `CS(=O)(=O)N(CC1CCCC1)c1ccc(CC(=O)N2CCN(c3ncnc4sc(CC(F)(F)F)cc34)CC2)cc1` [Compound 100], 500 to 2000 nM; in that of `CC(C)CN(c1ccc(CC(=O)N2CCN(c3ncnc4sc(CC(F)(F)F)cc34)CC2)cc1)S(C)(=O)=O` [Compound 101], 500 to 2000 nM.

With `CS(=O)(=O)N(CC1CC1)c1ccc(CC(=O)N2CCN(c3ncnc4sc(CC(F)(F)F)cc34)CC2)cc1` [Compound 102], the IC50 lay within 500 to 2000 nM. Consider `CC(C)N(c1ccc(CC(=O)N2CCN(c3ncnc4sc(CC(F)(F)F)cc34)CC2)cc1)S(C)(=O)=O` [Compound 103], for which the IC50 lay in the range of 500 to 2000 nM. On to `CS(=O)(=O)N(CC#N)c1ccc(C(F)(F)C(=O)N2CCN(c3ncnc4sc(CC(F)(F)F)cc34)CC2)cc1` [Compound 104], for which the IC50 lay in the range of 500 to 2000 nM. `Oc1ccc(CN2CCC(Nc3ncnc4sc(CC(F)(F)F)cc34)CC2)cc1` [Compound 105, 4-((4-((6-(2,2,2-trifluoroethyl)thieno[2,3-d]pyrimidin-4-yl)amino)piperidin-1-yl)methyl)phenol] had an IC50 of under 100 nM. Next, `N#C[C@H]1C[C@@H]1c1ccc(CN2CCC(Nc3ncnc4sc(CC(F)(F)F)cc34)CC2)cc1` [Compound 106]: under 100 nM. With `OCc1cc(O)ccc1CN1CCC(Nc2ncnc3sc(CC(F)(F)F)cc23)CC1` [Compound 107], the IC50 was 100 to 500 nM.

`Oc1cccc(CN2CCC(Nc3ncnc4sc(CC(F)(F)F)cc34)CC2)c1` [Compound 109] displayed a half-inhibitory concentration (IC50) of 100 to 500 nM. In turn, `OCc1ccccc1CN1CCC(Nc2ncnc3sc(CC(F)(F)F)cc23)CC1` [Compound 110] came in with a half-maximal inhibitory concentration (IC50) of 100 to 500 nM. Next, `Oc1cccc(O)c1CN1CCC(Nc2ncnc3sc(CC(F)(F)F)cc23)CC1` [Compound 111]: 100 to 500 nM; `OCc1c(CC(F)(F)F)sc2ncnc(NC3CCN(Cc4ccccc4)CC3)c12` [Compound 112]: 100 to 500 nM; `Nc1ccccc1CN1CCC(Nc2ncnc3sc(CC(F)(F)F)cc23)CC1` [Compound 113]: 100 to 500 nM. Molecule `Oc1ccccc1CN1CCC(Nc2ncnc3sc(CC(F)(F)F)cc23)CC1` [Compound 114] gave an IC50 of 100 to 500 nM. Next, `FC(F)(F)Cc1cc2c(NC3CCN(Cc4ccc(N5CCOCC5)cc4Cl)CC3)ncnc2s1` [Compound 115]: 100 to 500 nM; `FC(F)(F)Cc1cc2c(NC3CCN(Cc4ccc(CN5CCCCC5)cc4)CC3)ncnc2s1` [Compound 116]: 100 to 500 nM; `Cc1ccccc1CN1CCC(Nc2ncnc3sc(CC(F)(F)F)cc23)CC1` [Compound 117]: 100 to 500 nM. The molecule `CCc1ccc(CN2CCC(Nc3ncnc4sc(CC(F)(F)F)cc34)CC2)cc1` [Compound 118] returned a 50% inhibitory concentration (IC50) of 100 to 500 nM. Next, `FC(F)(F)Cc1cc2c(NC3CCN(Cc4ccccc4Cl)CC3)ncnc2s1` [Compound 119]: 100 to 500 nM; `Cc1ccc(CN2CCC(Nc3ncnc4sc(CC(F)(F)F)cc34)CC2)c(C)c1` [Compound 120]: 100 to 500 nM; `NCc1ccccc1CN1CCC(Nc2ncnc3sc(CC(F)(F)F)cc23)CC1` [Compound 121]: 100 to 500 nM.

Turning to `Fc1ccc(CN2CCC(Nc3ncnc4sc(CC(F)(F)F)cc34)CC2)c(F)c1` [Compound 122], the IC50 was in the range of 100 to 500 nM. Regarding `NN(c1ncnc2sc(CC(F)(F)F)cc12)C1CCN(Cc2ccccc2)CC1` [Compound 123], the IC50 fell in the range of 100 to 500 nM.

In the case of `FC(F)(F)Cc1cc2c(N(NCc3ccccc3)C3CCN(Cc4ccccc4)CC3)ncnc2s1` [Compound 124], the IC50 fell in the range of 100 to 500 nM. Regarding `OCCNN(c1ncnc2sc(CC(F)(F)F)cc12)C1CCN(Cc2ccccc2)CC1` [Compound 125], the IC50 was in the range of 100 to 500 nM. `Cc1c(CC(F)(F)F)sc2ncnc(NC3CCN(Cc4ccccc4)CC3)c12` [Compound 126] displayed an IC50 of 100 to 500 nM. As for `OCCCN(c1ncnc2sc(CC(F)(F)F)cc12)C1CCN(Cc2ccccc2)CC1` [Compound 127], the IC50 fell in the range of 100 to 500 nM. In turn, `OCC(O)CN(c1ncnc2sc(CC(F)(F)F)cc12)C1CCN(Cc2ccccc2)CC1` (centres unmarked) [Compound 128] returned an IC50 of 100 to 500 nM. In the case of `OCCN(c1ncnc2sc(CC(F)(F)F)cc12)C1CCN(Cc2ccccc2)CC1` [Compound 129] it was 100 to 500 nM; in that of `CC(=O)Nc1ccc(CN2CCC(Nc3ncnc4sc(CC(F)(F)F)cc34)CC2)cc1` [Compound 130], 100 to 500 nM.

`FC(F)(F)Cc1cc2c(NC3CCN(Cc4ccc[nH]4)CC3)ncnc2s1` [Compound 131] returned an IC50 of 100 to 500 nM. Molecule `FC(F)(F)Cc1cc2c(NC3CCN(Cc4cccs4)CC3)ncnc2s1` [Compound 132] gave an IC50 of 100 to 500 nM. In the case of `FC(F)(F)Cc1cc2c(NC3CCN(Cc4ccsc4)CC3)ncnc2s1` [Compound 133] it was 100 to 500 nM.

In turn, `FC(F)(F)Cc1cc2c(NC3CCN(Cc4cc[nH]c4)CC3)ncnc2s1` [Compound 134] displayed an IC50 of 100 to 500 nM. The molecule `FC(F)(F)Cc1cc2c(N[C@@H]3[C@@H]4CC[C@H]3CN(Cc3ccccc3)C4)ncnc2s1` [Compound 135] gave an IC50 of 100 to 500 nM. Next, `O=C1CCc2cc(CN3CCC(Nc4ncnc5sc(CC(F)(F)F)cc45)CC3)ccc2N1` [Compound 136]: 500 to 2000 nM.

Source of the values: US9505781B2, “Compositions comprising thienopyrimidine and thienopyridine compounds and methods of use thereof” (The Regents of the University of Michigan, priority 2013, dated 2016).
